Assay results as given in patent US11136296B2, “Substituted N-arylethyl-2-arylquinoline-4-carboxamides and use thereof” (Bayer Aktiengesellschaft, priority 2017, dated 2021).

Assays:
FP receptor = FP receptor (Homo sapiens (Human), UniProt P43088); test: In vitro test of inhibition of human FP receptor activity (PGF2α-induced calcium flux in FP-expressing CHEM1 cells); type: cell-based; settings: PGF2α-induced (2 nM) calcium flux in FP-expressing CHEM1 cells; some as mean values from multiple determinations
Text: Table 1 below lists the IC50 values from this assay for individual working examples of the invention (some as mean values from multiple independent individual determinations): […]

[1] = tested on: fluprostenol-induced mechanical sensitivity; test: Effects of FP antagonists on mechanical sensitivity (von Frey test, fluprostenol-induced mechanical allodynia); type: in vivo, mouse; settings: for 50% Paw Response Threshold, mean: Ex. 153 90 mg/kg PO, male ND4 mice; for effect on 50% Paw Response Thresholds compared to vehicle-treated animals: group treated with […] fluprostenol, oral 90 mg/kg
Method: B-24. Effects of FP Antagonists on Mechanical Sensitivity (Peripheral, Mouse)
Mechanical allodynia was examined using the von Frey test on the injected and uninjected rear paws several times after the injection.
Mechanical allodynia was measured with […] (Stölting©; Wood Dale, Ill., USA) having different stiffness (0.04; 0.07; 0.16; 0.4; 1.0. 4.0 and 8.0 g) by the up-down method (Chaplan et al., J. Neurosci. Meth. 1994, 53, 56-63). Intact male ND4 mice (30 g, 10 animals per group) were placed in individual acrylic chambers on a metal grid surface, and were allowed to get used to their environment for at least 15 minutes before the testing. Each filament was pressed with sufficient force at right angles to the underside of the paw, in order to cause slight bending against the paw, and was held for about 6 seconds or until a positive response was registered (paw quickly withdrawn). The testing was commenced with the 0.4 g filament. If the paw was not withdrawn, the next strongest stimulus was used. In the case that the paw was withdrawn, the next weakest stimulus was used. This process was repeated until up to 4 responses had been obtained after the initial change in response (no response after positive response or positive response after no response). […] The 50% paw response threshold was calculated using the following formula:
[formula] • Xf=value (in logarithmic units) of the last von Frey filament used • k=table value for the pattern of positive/negative responses (see Chaplan et al., J. Neurosci. Meth. 1994, 53, 56-63, Annex 1, page 62) • δ=average difference (in logarithmic units) between the stimuli
The mean and […] of the mean (SEM) was determined for each paw for each treatment group at each time point.
In order to assess the analgesic effect of an FP antagonist on fluprostenol-induced mechanical sensitivity, the test substance from Ex. 153 (90 mg/kg) was administered 2 hours before and 8 and 22 hours after the injection of fluprostenol. Ipsilateral and contralateral 50% paw response thresholds were examined prior to the administration of fluprostenol and 0.5, 2, 6 and 24 h after the administration.

FP receptor, sequence (P43088 whole entry): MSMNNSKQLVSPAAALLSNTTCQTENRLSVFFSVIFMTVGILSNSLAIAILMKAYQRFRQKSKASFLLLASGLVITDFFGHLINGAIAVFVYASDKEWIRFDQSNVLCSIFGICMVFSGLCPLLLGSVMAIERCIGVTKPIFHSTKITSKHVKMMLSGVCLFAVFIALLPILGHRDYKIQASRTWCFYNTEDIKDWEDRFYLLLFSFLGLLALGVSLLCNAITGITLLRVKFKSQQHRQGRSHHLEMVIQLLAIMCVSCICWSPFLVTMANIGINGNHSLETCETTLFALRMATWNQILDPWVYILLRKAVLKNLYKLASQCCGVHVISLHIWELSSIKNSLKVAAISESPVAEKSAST

| Compound | IC50 (FP receptor) [nM] | other results |
| --- | --- | --- |
| Cc1c(-c2ccccc2)nc2ccc(Br)cc2c1C(=O)NCC(CCC(=O)O)c1ccccc1Cl (single isomer, unassigned; (+)) [Ex. 153, (+)-5-{[(6-Bromo-3-methyl-2-phenylquinolin-4-yl)carbonyl]amino}-4-(2-chlorophenyl)pentanoic Acid] | 9 | 50% Paw Response Threshold, mean ([1]; Group 2: fluprostenol ~[…] IPL, 0.5 h): 2.65 g; 50% Paw Response Threshold, mean ([1]; Group 2: fluprostenol ~[…] IPL, 2 h): 2.403 g; 50% Paw Response Threshold, mean ([1]; Group 2: fluprostenol ~[…] IPL, 6 h): 1.89 g; 50% Paw Response Threshold, mean ([1]; Group 2: fluprostenol ~[…] IPL, 24 h): 3.245 g; 50% Paw Response Threshold, mean ([1]; Group 2: fluprostenol ~[…] IPL, BL (baseline)): 4.421 g; 50% Paw Response Threshold, mean ([1]; Group 4: fluprostenol ~[…] IPL, 0.5 h): 0.728 g; 50% Paw Response Threshold, mean ([1]; Group 4: fluprostenol ~[…] IPL, 2 h): 0.716 g; 50% Paw Response Threshold, mean ([1]; Group 4: fluprostenol ~[…] IPL, 6 h): 1.57 g; 50% Paw Response Threshold, mean ([1]; Group 4: fluprostenol ~[…] IPL, 24 h): 1.683 g; 50% Paw Response Threshold, mean ([1]; Group 4: fluprostenol ~[…] IPL, BL (baseline)): 4.215 g; effect on 50% Paw Response Thresholds compared to vehicle-treated animals ([1]; 0.5 hours after the fluprostenol injection): increased the “50% Paw Response Thresholds” 0.5 hours after the fluprostenol injection significantly; effect on 50% Paw Response Thresholds compared to vehicle-treated animals ([1]; 24 hours after the fluprostenol injection): increased the “50% Paw Response Thresholds” 24 hours after the fluprostenol injection significantly |
| Cc1c(-c2ccccc2)nc2ccc(Br)cc2c1C(=O)NCC(CCC(=O)O)c1ccccc1OC(F)F (racemic) [Example 178, (+/−)-5-{[(6-Bromo-3-methyl-2-phenylquinolin-4-yl)carbonyl]amino}-4-[2-(difluoromethoxy)phenyl]pentanoic Acid] | 6.5 |  |
| Cc1c(-c2ccccc2)nc2ccc(Br)cc2c1C(=O)NCC(CCC(=O)O)c1ccccc1OC(F)F (single isomer, unassigned; (+)) [Example 180, (+)-5-{[(6-Bromo-3-methyl-2-phenylquinolin-4-yl)carbonyl]amino}-4-[2-(difluoromethoxy)phenyl]pentanoic Acid] | 8.2 |  |
| Cc1c(-c2ccccc2)nc2ccc(Br)cc2c1C(=O)NC(C)C(CC(=O)O)c1ccccc1Cl (single isomer, unassigned; (-)) [Example 149, (−)-4-{[(6-Bromo-3-methyl-2-phenylquinolin-4-yl)carbonyl]amino}-3-(2-chlorophenyl)pentanoic Acid] | > 1000 |  |
| Cc1c(-c2ccccc2)nc2ccc(Br)cc2c1C(=O)NCC(CC(=O)O)c1ccccn1 (single isomer, unassigned; (+)) [Example 104, (+)-4-{[(6-Bromo-3-methyl-2-phenylquinolin-4-yl)carbonyl]amino}-3-(pyridin-2-yl)butanoic Acid] | > 1000 |  |
| Cc1cccc(C(CNC(=O)c2c(C)c(-c3ccccc3)nc3ccc(Br)cc23)C(=O)O)c1 (single isomer, unassigned; (+)) [Example 52, (+)-3-{[(6-Bromo-3-methyl-2-phenylquinolin-4-yl)carbonyl]amino}-2-(3-methylphenyl)propanoic Acid] | 71 |  |
| Cc1c(-c2ccccc2)nc2ccc(Br)cc2c1C(=O)NCC(OCC(=O)O)c1ccccc1Cl (racemic) [Example 191, (+/−)-[2-{[(6-Bromo-3-methyl-2-phenylquinolin-4-yl)carbonyl]amino}-1-(2-chlorophenyl)ethoxy]acetic Acid] | 100 |  |
| Cc1c(-c2ccccc2)nc2ccc(Br)cc2c1C(=O)NCC(CCC(=O)O)c1cc(F)cc(F)c1F (racemic) [Example 231, (+/−)-5-{[(6-Bromo-3-methyl-2-phenylquinolin-4-yl)carbonyl]amino}-4-(2,3,5-trifluorophenyl)pentanoic Acid] | 22 |  |
| COc1cccc(F)c1C(CNC(=O)c1c(C)c(-c2ccccc2)nc2ccc(Br)cc12)CC(=O)O (single isomer, unassigned; (+)) [Example 127, (+)-4-{[(6-Bromo-3-methyl-2-phenylquinolin-4-yl)carbonyl]amino}-3-(2-fluoro-6-methoxyphenyl)butanoic Acid] | 25 |  |
| Cc1c(-c2ccccc2)nc2ccc(Br)cc2c1C(=O)NCC(CCC(=O)O)c1c(F)cccc1C(F)(F)F (single isomer, unassigned; (-)) [Example 227, (−)-5-{[(6-Bromo-3-methyl-2-phenylquinolin-4-yl)carbonyl]amino}-4-[2-fluoro-6-(trifluoromethyl)phenyl]pentanoic Acid] | 1.6 |  |
| Cc1c(-c2ccccc2)nc2ccc(Br)cc2c1C(=O)NCC(C)(CC(=O)O)c1ncccc1Cl (single isomer, unassigned; (-)) [Example 85, (−)-4-{[(6-Bromo-3-methyl-2-phenylquinolin-4-yl)carbonyl]amino}-3-(3-chloropyridin-2-yl)-3-methylbutanoic Acid] | 16 |  |

More lines, main results first:

| IC50 (FP receptor) [nM] | Compound | other results |
| --- | --- | --- |
| 23 | Cc1ccccc1C(CNC(=O)c1c(C)c(-c2ccccc2)nc2ccc(Br)cc12)CC(=O)O (single isomer, unassigned; (-)) [Example 76, (−)-4-{[(6-Bromo-3-methyl-2-phenylquinolin-4-yl)carbonyl]amino}-3-(2-methylphenyl)butanoic Acid] |  |
| 240 | Cc1c(-c2ccccc2)nc2ccc(Br)cc2c1C(=O)NCC(C)(CC(=O)O)c1ccccn1 (racemic) [Example 117, (+/−)-4-{[(6-Bromo-3-methyl-2-phenylquinolin-4-yl)carbonyl]amino}-3-methyl-3-(pyridin-2-yl)butanoic Acid] |  |
| 340 | Cc1c(-c2ccccc2)nc2ccc(Br)cc2c1C(=O)NCC(C)(C(=O)O)c1ccccc1F (single isomer, unassigned; (+)) [Example 30, (+)-3-{[(6-Bromo-3-methyl-2-phenylquinolin-4-yl)carbonyl]amino}-2-(2-fluorophenyl)-2-methylpropanoic Acid] |  |
| 130 | Cc1c(-c2ccccc2)nc2ccc(Br)cc2c1C(=O)NCC(C(=O)O)c1ccccc1 (racemic) [Example 1, (+/−)-3-{[(6-Bromo-3-methyl-2-phenylquinolin-4-yl)carbonyl]amino}-2-phenylpropanoic Acid] |  |
| 170 | CCC(CNC(=O)c1c(C)c(-c2ccccc2)nc2ccc(Br)cc12)(C(=O)O)c1ccccc1 (racemic) [Example 16, (+/−)-2-({[(6-Bromo-3-methyl-2-phenylquinolin-4-yl)carbonyl]amino}methyl)-2-phenylbutanoic Acid] |  |
| 10 | COc1ccccc1C(C)(CNC(=O)c1c(C)c(-c2ccccc2)nc2ccc(Br)cc12)CC(=O)O (single isomer, unassigned; (+)) [Example 121, (+)-4-{[(6-Bromo-3-methyl-2-phenylquinolin-4-yl)carbonyl]amino}-3-(2-methoxyphenyl)-3-methylbutanoic Acid] |  |
| 78 | COc1ccccc1C(O)(CNC(=O)c1c(C)c(-c2ccccc2)nc2ccc(Br)cc12)C(=O)O (single isomer, unassigned; (+)) [Example 55, (+)-3-{[(6-Bromo-3-methyl-2-phenylquinolin-4-yl)carbonyl]amino}-2-hydroxy-2-(2-methoxyphenyl)propanoic Acid] |  |
| 62 | Cc1c(-c2ccccc2)nc2ccc(Br)cc2c1C(=O)NCC(c1ccccc1Cl)N(C)CC(=O)O (single isomer, unassigned; (+)) [Example 189, (+)-N-[2-{[(6-Bromo-3-methyl-2-phenylquinolin-4-yl)carbonyl]amino}-1-(2-chlorophenyl)ethyl]-N-methylglycine] |  |
